Assay results published in a melting point compilation (Tetko et al.; mined from patent text by program, amines drawn as free bases though some values may be those of a salt).

melting point	SMILES
160 to 163 °C	CSc1ccc(/C=C/C(=O)/C=C/C(=O)O)cc1
249 to 251 °C	CNC(=O)c1ccccc1S(=O)(=O)Cc1c(O[C@H](Cn2ccnc2)c2ccccc2)ccc2c1CCCC2=O
103 to 104 °C	CC(=O)N[C@@H](CSC(=O)C(C)(C)C)C(=O)NCCSC(=O)C(C)C
248 °C	CC(NC(=O)c1cc(Cl)ccc1NC(=O)C1CC(=O)NN1)C1CC1 (stereo not drawn)
176 to 178 °C	Cc1c(CCN(C)C(=O)OC(C)(C)C)c2cc(S(=O)(=O)c3cccc4ccccc34)ccc2n1C
94 to 96 °C	COc1ccc(CC(NC(=O)OC(C)(C)C)C(=O)O)cc1 (stereo not drawn)
126 to 128 °C	CCCCN(CCCC)C(=O)/C=C/c1ccc(Cn2c(-c3ccc(O)cc3)c(C)c3cc(O)ccc32)cc1
69 to 70 °C	COc1c(C(C)(C)C)cc(P(c2cc(C(C)(C)C)c(OC)c(C(C)(C)C)c2)c2ccccc2P2c3ccccc3CC2C(C)C)cc1C(C)(C)C (single isomer, unassigned; (+))
203 to 205 °C	Cc1ncc(N2N=C(c3ccc([N+](=O)[O-])cc3)c3cc4c(cc3CC2C)OCO4)o1 (stereo not drawn)
92 to 93 °C	CC(=O)SCC1CN2CCCC(C(=O)OC(C)(C)C)N2C1=O (stereo not drawn)
117 to 118 °C	COC(=O)C(C(C)C)N(C)S(=O)(=O)c1ccc(-c2ccc([N+](=O)[O-])cc2)cc1 (stereo not drawn)
54 to 55 °C	BrCCCOc1ccc(Oc2ccccc2)cc1
54 to 56 °C	CCCCCCCCC(SCCCCCC)C(=O)Nc1cccc2nnccc12 (stereo not drawn)
98 to 101 °C	CC(C)(C)c1cc(CSCN(O)CSCc2cc(C(C)(C)C)c(O)c(C(C)(C)C)c2)cc(C(C)(C)C)c1O
178 to 180 °C	Cc1nn(-c2ccc(F)cc2)cc1C(=O)N(CCCC(=O)O)c1ccc(OCC(C)(C)C)c(C#N)c1
119 to 120 °C	Nc1nc(Cl)cc(C=C(Cl)Cl)n1
130 to 131 °C	CSc1ccc(C2OC(=O)NC2CO)cc1 (stereo not drawn)
117 to 118 °C	CCn1c(Oc2cccc(NS(C)(=O)=O)c2)nnc1[C@@H](C)NS(=O)(=O)c1ccc(Cl)c(Cl)c1
130 to 131 °C	O=C(OCc1ccccc1)On1nnc2ccccc21
175 °C	COc1ccc(N2CCOCC2)c2sc(C(=O)NCC(=O)c3ccc4c(c3)OCCO4)nc12
245 to 258 °C	NC(=O)c1ccc(-c2ccc(Cl)cc2)nc1
116 to 118 °C	CC(=O)NCc1ccc(CCl)cc1
281 to 282 °C	Cc1nc(-c2c(Cl)cc(C(F)(F)F)cc2Cl)[nH]c1C

melting point	SMILES
53 to 57 °C	COc1nccc2c(N)cccc12
98 to 99 °C	CCCCCCc1cc2c(cc1C(=O)O)C(C)(C)CCC2(C)C
195 to 199 °C	COC1=NC(=O)N(C)S(=O)(=O)N1
278 °C	CCn1cnc(S(=O)(=O)O)c1
144 to 146 °C	COC(=O)c1ccc(-c2ncccc2S(=O)(=O)Nc2ncc(C)nc2OC)cc1
84 to 86 °C	CCCN(CCC)c1ccc(CCC(=O)O)c2c1CCCN2C(=O)OC(C)(C)C
128 to 129 °C	Clc1ccc(-n2ncc3c2-c2ccccc2C3)cc1
216 °C	Cn1c(=O)cc(-c2nc(-c3ccccc3)cs2)c2cc(C(=O)c3ccc(Cl)cc3)ccc21
50 °C	O=C1Cc2cccc(CNC(=O)C3Cc4ccccc4N3S(=O)(=O)c3ccc(-c4cccc(C(F)(F)F)c4)cc3)c2N1 (stereo not drawn)
157 to 159 °C	CC(C)(NC(=O)OCc1ccccc1)C(=O)NC(c1ccccc1)c1ccccc1
227 to 230 °C	FC(F)(F)c1ccc(-c2cc(Cl)ncn2)cc1
87.5 to 89.5 °C	BrCC=C1c2ccccc2C=Cc2ccccc21
113 to 114 °C	CSc1c(SC)c(OC(C)=O)c2cc(Cl)ccc2c1OC(C)=O
143 to 148 °C	O=C1NCCc2c(Cl)cccc21
55 to 60 °C	COC1CC(NC(=O)C(F)(F)F)C(OC)C(C)O1 (stereo not drawn)
177 to 180 °C	CS(=O)(=O)c1ccc(N2CC(CO)OC2=O)cc1 (stereo not drawn)
77 to 78 °C	CNC(=O)N(C)c1cc(C)on1
107 °C	O=C(OCc1ccccc1)[C@@H](Cc1ccccc1)NS(=O)(=O)c1ccc2ccccc2c1
114 to 116 °C	CCc1cc(N)c(N)cc1CC
101 to 102 °C	CCOC(=O)C1COc2cc(C=O)c(Cl)c(Cl)c2O1 (stereo not drawn)
54 to 60 °C	CC(C)(C(=O)N1CCc2ccccc2C1)c1ccc(S(=O)(=O)/C=C/C#N)cc1
120 to 121 °C	CN(C)CCCOc1ccc2c(c1)SCC(=O)N2
220 °C	O=C1CC(c2cccc(-n3ccnc3)c2)=Nc2cc(O)c(-c3ccccc3F)cc2N1

melting point	SMILES
208 to 210 °C	COc1cc(-c2ccccc2C(F)(F)F)c(Cl)cc1C(=O)N1Cc2cccn2Cc2ccccc21
253 to 255 °C	CCn1nc2c(N)nc3ccccc3c2c1CC1(O)CCOCC1
112 to 114 °C	c1cc(CC[C@H]2CNCCN2)co1
130 to 132 °C	COc1ccc(CCC(O)=S)cc1[N+](=O)[O-]
225 to 227 °C	COc1ccc(-c2cnn3c(-c4cccc(NC(=O)CC(C)C)c4)ccnc23)cc1
208 to 210 °C	COc1cc(N)c(Cl)cc1C(=O)NN1CCN(Cc2ccc(N(C)C)cc2)CC1
65 to 67 °C	CCCCc1nn(-c2cc(C(=O)OC)ccc2Cl)c(=O)n1Cc1ccc(-c2ccccc2S(=O)(=O)NC(C)(C)C)cc1
261 to 263 °C	CC(C)(C)c1ccc(C(=O)Nc2cn3cc(-c4ccsc4)ccc3n2)cc1
160 to 163 °C	CCN(CC)C(=O)COC(=O)c1cccc(NC(=O)C(CS)Cc2ccccc2)c1 (stereo not drawn)
134 to 135 °C	O=C(OCC(=O)c1ccc(C(F)(F)F)cc1)Oc1ccccc1
183 to 185 °C	COC(c1ccccc1)n1cnc2c(-c3cccs3)nc(Cl)nc21 (stereo not drawn)
176 to 178 °C	COc1cccc2c1Sc1ccc(C(C)C(=O)O)cc1C(=O)C2 (stereo not drawn)
151 to 152 °C	O=C1NCc2ccc(-c3cccc4cc(Cc5cccc(C(F)(F)F)c5)sc34)cc21
109 to 111 °C	Cc1cc(OCc2ccccc2)cc(OCCCc2ccccc2)c1C(=O)O
179 to 181 °C	Cc1nn2cccnc2c1C#N
118 to 120 °C	COc1cccc(C(=O)Nc2ccc(N3CCN(Cc4cccc(C#N)c4)CC3)cc2)c1OCc1ccc(C(F)(F)F)cc1
280 to 283 °C	NC(=O)Cn1c(-c2ccc(Cl)cc2)nc2ncccc21
217 to 218 °C	Nc1ccc2c(c1)c1ccccc1n2CCC(=O)NCCO
126 °C	CC(C#N)c1ccc2nc(-c3ccccc3)ccc2c1 (stereo not drawn)
68 to 70 °C	COc1ccccc1Oc1ccccc1N
246 °C	O=C(O)c1cc2ccsc2cn1
163 to 165 °C	CC(N)C(=O)N1C(C(=O)O)CC2CCCCC21 (stereo not drawn)
148 °C	CCOC(=O)C1=C(C)NC(C)=C(C(=O)OC(C)C)C1c1cccc([N+](=O)[O-])c1 (stereo not drawn)

SMILES	melting point
CN1CCc2c(Cl)ccc3c4c(n(c23)CC1)CCCC4	128 to 130 °C
CC(C)(C)OC(=O)N1CCN(CC(=O)Nc2ccc(CC#N)cc2)CC1	137 to 138 °C
CC(=O)C(=[N+]=[N-])S(=O)(=O)C(C)C	53 to 55 °C
CC1C(C)(C)c2ccc(O)cc2C1(C)C (stereo not drawn)	149 °C
